# Measurements published in patent US11414385B2, “Compounds and methods for treating, detecting, and identifying compounds to treat apicomplexan parasitic diseases” (The University of Chicago, priority 2015, dated 2022).
# Entries after “also recorded” stand apart in the source; their conditions may differ.
# Key:
# Toxoplasma RPS13 delta = test: RPS13 delta G0 arrested parasite in interferon gamma knockout mice; type: in vivo, Toxoplasma gondii; details: with tafenoquine 3 mg/kg single dose, minus tetracycline
# Procedure: RPS13 Δ. This G0 arrested parasite persists in tissue culture for prolonged times in the absence of tetracycline. The parasite (x) was used to infect interferon gamma knockout mice. For the first y days no tetracycline was administered. After that time tetracycline was administered. Mice were observed and at the time they appeared ill or at the termination of the experiment they were euthanized and tissues fixed in formalin and stained with hematoxylin and eosin or immunoperoxidase stained and parasite burden was assessed.
# RH-YFP = test: Assessment of compound degradation and microbicidal effect on Toxoplasma; type: cell-based, Toxoplasma gondii
# Procedure: HFF were cultured in a 96-well plate and infected with RH-YFP as described above on Day 0, 20 μL of compound was added to 9 wells for each compound and concentration (3 conditions, 3 wells per condition). In condition I, media was removed and replaced with fresh media on Day 3. In condition II, media was removed and replaced with fresh media and more compound on Day 3. In condition III, media was not replaced on Day 3, nor was the compound refreshed. On Day 6, media was removed and replaced with clean media in all wells. On Day 3, 6, and 9 plate was read in the fluorimeter and analyzed graphically in Prism (GraphPad Software).
structure (smiles),measurement,setting,value
"Cc1[nH]c2c(c(=O)c1-c1ccc(Oc3ccc(OC(F)(F)F)cc3)cc1)CCCC2 [JAG21, 2-methyl-3-(4-(4-(trifluoromethoxy)phenoxy)phenyl)-5,6,7,8-tetrahydroquinolin-4(1H)-one]",protection against RPS13 delta in combination with tafenoquine,Toxoplasma RPS13 delta,both needed to contain RPS 13Δ; also recorded: protect against a G0 arrested parasite; also recorded: superior to either alone
same,compound degradation over time,RH-YFP; 6-day exposure in culture,did not appear that the compound was being degraded over time
same,microbicidal effect,"RH-YFP; RH-YFP, media replaced",Neither compound was found to be microbicidal
